Each structure is given as a SMILES string. Activity calls are given as the source filed them.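 Rule for the calls: active = AC50, the dose giving half-maximal effect, exceeds a fixed cutoff for a compound that rescues yeast growth under heat; inactive = the rest, inconclusive results apart.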

Among the data in PubChem BioAssay AID463199 (Broad Institute, 2010) are AC50 values, retold here.

For this experiment, the system named is S. cerevisiae Burl-1 ts mutant growth, BacTiter-Glo, 38.5C 24 h. In words: growth induction of Burl-1 ts yeast mutant, dose response, counter-screen for SUMOylation pathway inhibitor project, whole organism, S. cerevisiae, luminescence (AID 463199).
As a reminder, the AC50 is the midpoint of the concentration-response curve, whichever way the signal moves. As for `CN1CCCCC1=NCCCn1cnc2c1c(=O)n(C)c(=O)n2C`, the AC50 is > 42 µM (inactive).

For the molecule `CC(C)(C)NC(=O)CC1C(=O)NCCN1Cc1c(F)cccc1Cl` (stereo not given), the AC50 is 37.4 µM.

For the molecule `O=C(COC(=O)c1cc([N+](=O)[O-])ccc1N1CCOCC1)Nc1cccc(F)c1`, the AC50 is > 42 µM (inactive).

With `CC1=C(C(N)=O)C(c2ccccn2)n2nc(SCc3ccccc3Cl)nc2N1` (stereo not given), the AC50 is > 42 µM (inactive).

Take `CN(C)S(=O)(=O)N1CCc2ccccc2C1`: the AC50 was > 42 µM (inactive).

For `CCCCc1ccc(S(=O)(=O)NNC(=S)NCc2ccco2)cc1`, the AC50 is > 42 µM (inactive).

On to `Cc1ccc(C)n1-n1cnc2sc3c(c2c1=O)CCCCC3`, for which the AC50 was > 42 µM (inactive).

Turning to `CC(C)(C)C(=O)C(Cl)C(=O)Nc1ccccc1` (stereo not given), the AC50 was > 42 µM (inactive).

Take `CCOC(=O)C1(Cc2cccc(Cl)c2)CCCN(C(=O)CCOC)C1` (stereo not given): the AC50 was > 42 µM (inactive).

As to `CC(C)(C)C(=O)NC1(C(F)(F)F)NC(=O)N(c2ccccc2F)C1=O` (stereo not given), the AC50 was > 42 µM (inactive).

On to `O=C(O)C1C2CCCCC2=C2CCCCC2C1C(=O)c1ccccc1` (stereo not given), for which the AC50 was > 42 µM (inactive).

Take `Cn1c(-c2sc3cc(C(F)(F)F)cnc3c2-c2cccs2)n[nH]c1=S`: the AC50 was > 42 µM (inactive).

`COc1ccccc1CNC(=O)CN(c1ccc(C)cc1)S(=O)(=O)c1c(C)n[nH]c1C`: the AC50 was > 42 µM (inactive).

On to `COc1cc(COc2ccc3c(C)c(CC(=O)O)c(=O)oc3c2C)cc(OC)c1OC`, for which the AC50 was > 42 µM (inactive).

As to `CC(Oc1ccc([N+](=O)[O-])cc1)C(=O)NCCCN1CCOCC1` (stereo not given), the AC50 was > 42 µM (inactive).

In the case of `CCS(=O)(=O)N1CCC(C(=O)NCCCN2CCN(c3ccccc3F)CC2)CC1`, the AC50 is > 42 µM (inactive).

As to `N#CCCN(C(=O)COC(=O)c1ccc(S(=O)(=O)Nc2ccccc2)cc1)c1ccccc1`, the AC50 is > 42 µM (inactive).

As to `COc1cc(CN2CCCC(CO)(Cc3cccc(Cl)c3)C2)cc2c1OCO2` (stereo not given), the AC50 was > 42 µM (inactive).

In the case of `CCOC(=O)c1[nH]c2ccc(F)cc2c1NC(=O)CCN1CCOCC1`, the AC50 is > 42 µM (inactive).

As for `CC(C)c1ccc(C2C(C(=O)c3ccco3)=C(O)C(=O)N2CCN2CCOCC2)cc1` (stereo not given), the AC50 was > 42 µM (inactive).

On to `CCOC(=O)C1C(=O)NC(SCC(=O)Nc2nccs2)=C(C#N)C1c1ccccc1OCC` (stereo not given), for which the AC50 was > 42 µM (inactive).

On to `CCOc1ccc(-c2nc(C#N)c(N3CCOCC3)o2)cc1`, for which the AC50 was > 42 µM (inactive).

Turning to `COc1ccc(-n2c(C)cc(C(=O)CN3C(=O)NC4(CCCc5sccc54)C3=O)c2C)cc1` (stereo not given), the AC50 was > 42 µM (inactive).

As to `COC(=O)Nc1ccc(S(=O)(=O)N2CCCC(C(=O)NC3CCS(=O)(=O)C3)C2)cc1` (stereo not given), the AC50 was > 42 µM (inactive).

For `O=C(Cc1cccs1)Nc1cccc(-c2nnc(-c3ccco3)o2)c1`, the AC50 is > 42 µM (inactive).

With `Cc1nc(C)n(CC(=O)N2CCCC(C(=O)c3cccc4ccccc34)C2)n1` (stereo not given), the AC50 was > 42 µM (inactive).

Regarding `COC(=O)c1ccc(CSc2nc3ccccc3c(=O)n2CC(C)C)o1`, the AC50 was > 42 µM (inactive).

On to `Cc1ccc2nc(/C(C#N)=C\c3cc(O)ccc3[N+](=O)[O-])[nH]c2c1`, for which the AC50 is > 42 µM (inactive).

With `CN(C)C(=O)CN1C(=O)c2cccc3cccc1c23`, the AC50 was > 42 µM (inactive).

`CN(NC(=O)c1ccccc1F)c1nc(C(F)(F)F)nc2ccccc12`: the AC50 is > 42 µM (inactive).

As to `CC(=O)c1ccc(N2CCN(CC(=O)Nc3cc(C)on3)CC2)cc1`, the AC50 is > 42 µM (inactive).

Take `S=c1[nH]nc(-c2ccccn2)n1/N=C/c1ccccc1`: the AC50 is > 42 µM (inactive).

`Cc1occc1-c1nnc(SCC(=O)N2CCN(c3ccccc3)CC2)n1C`: the AC50 is > 42 µM (inactive).

Turning to `O=c1[nH]cnc2ccc([N+](=O)[O-])cc12`, the AC50 was > 42 µM (inactive).

Take `CCOc1ccc(NC(=O)C2CC(=O)N3CCCN=C3S2)cc1` (stereo not given): the AC50 is > 42 µM (inactive).

In the case of `O=C1CCC(/C=C/c2ccccc2)=NN1Cc1ccc(Cl)c(Cl)c1`, the AC50 is > 42 µM (inactive).

For `C=CCNc1nnc(SC2CC(=O)N(c3ccc(OCCC)cc3)C2=O)s1` (stereo not given), the AC50 is > 42 µM (inactive).

`CN(C)C(=O)CNC(=O)C1CCCCC1`: the AC50 is > 42 µM (inactive).

Take `CCOC(=O)C1CC(c2ccccc2)=NNC1=O` (stereo not given): the AC50 is > 42 µM (inactive).

As to `CN(C)CCNC(=O)c1onc(CSc2ccc(F)c(F)c2)c1C(=O)NCCN(C)C`, the AC50 was > 42 µM (inactive).

Regarding `CCN(CC)C(=O)CSc1nnc(SCc2ccc(Cl)cc2)s1`, the AC50 was > 42 µM (inactive).

For the molecule `CCCC(=O)NC(C)c1nc2ccccc2[nH]1` (stereo not given), the AC50 is > 42 µM (inactive).

For `CCc1ccc(S(=O)(=O)NCc2cccnc2)cc1`, the AC50 was > 42 µM (inactive).

On to `O=S(=O)(c1ccc(S(=O)(=O)N2CCCC2)cc1)N1CCCCC1`, for which the AC50 is > 42 µM (inactive).

On to `CS(=O)(=O)N(CC(=O)N1CCCCCC1)Cc1ccc(Cl)cc1`, for which the AC50 is > 42 µM (inactive).

Consider `c1coc(C2OCC3(CO2)COC(c2ccco2)OC3)c1` (stereo not given), for which the AC50 was > 42 µM (inactive).

`Cc1cc(C)c2nc(-c3cccnc3)cc(C(=O)Nc3ccc(S(=O)(=O)Nc4onc(C)c4C)cc3)c2c1`: the AC50 is > 42 µM (inactive).

Turning to `Cc1ccccc1OCc1nc(-c2ccccc2)no1`, the AC50 was > 42 µM (inactive).

In the case of `Cc1cnc(C(=O)OC(C(=O)c2c[nH]c3ccccc23)c2ccccc2)cn1` (stereo not given), the AC50 is > 42 µM (inactive).

For the molecule `COc1ccc2c(c1)OC[C@H]1[C@H]2N2C(=O)c3cc(OC)c(OC)cc3NC(=O)[C@@]2(C)[C@H]1c1ccccc1`, the AC50 is > 42 µM (inactive).

As for `COc1ccc(C2NC(=O)c3ccccc3O2)cc1` (stereo not given), the AC50 is > 42 µM (inactive).

`Oc1c(Br)cc(Br)cc1/C=N/N1CCN(Cc2ccccc2)CC1`: the AC50 is > 42 µM (inactive).

Consider `CCOc1ccc(Cl)cc1CNc1nnnn1CC`, for which the AC50 is > 42 µM (inactive).

Take `Oc1c(Br)cc(Cl)cc1C=Nc1ccccc1Br`: the AC50 was > 42 µM (inactive).

`CC1=CS(=O)(=O)CC1Sc1ncn[nH]1` (stereo not given): the AC50 was > 42 µM (inactive).

On to `O=S(=O)(NCCN1CCCC1)c1cccc2cccnc12`, for which the AC50 was > 42 µM (inactive).

Regarding `CCCc1nc(NCc2ccccc2)c(C#N)c2c1CCCC2`, the AC50 is > 42 µM (inactive).

`CC1CC(c2ccccc2)NS(=O)(=O)O1` (stereo not given): the AC50 is > 42 µM (inactive).

Regarding `O=C(Cn1cnc2ccccc2c1=O)c1ccc(OC(F)F)cc1`, the AC50 was > 42 µM (inactive).

In the case of `O=C(c1ccco1)N1CCN(C(=O)C2Cc3ccccc3CN2S(=O)(=O)c2ccc(F)cc2)CC1` (stereo not given), the AC50 is > 42 µM (inactive).

For `Cc1ccc(C)c(C(C)NC(=O)c2ccncc2)c1` (stereo not given), the AC50 is > 42 µM (inactive).

As to `CCC1=Nc2cc(C(=O)NCc3ccco3)ccc2Sc2ccccc21`, the AC50 is > 42 µM (inactive).

For `Cc1ccc(Cn2c(NCCc3ccccc3)nc3c2c(=O)n(C)c(=O)n3C)cc1`, the AC50 is > 42 µM (inactive).

Consider `COc1cc(OC)cc(OC(=O)c2ccc3c(=O)n4c(nc3c2)CCC4)c1`, for which the AC50 was > 42 µM (inactive).

With `O=C(c1cccs1)N(C(=O)c1cccs1)c1ccc(Br)cn1`, the AC50 was > 42 µM (inactive).

Consider `COCc1[nH][nH]c(=O)c1C=Nc1ccc(OC(F)(F)F)cc1`, for which the AC50 was > 42 µM (inactive).

Consider `CN(C)C(=O)CCN1CCOCC1`, for which the AC50 was > 42 µM (inactive).

On to `O=C(Nc1nnc(COc2ccc(F)cc2)s1)c1cccs1`, for which the AC50 is > 42 µM (inactive).

`O=C(CSc1ncccn1)c1ccccc1Br`: the AC50 was > 42 µM (inactive).

As for `O=C(CSc1nc(O)cc(=O)n1-c1ccccc1)NC1CCCCC1`, the AC50 was > 42 µM (inactive).

With `CCCc1nn2c(=O)cc(CSCC(=O)Nc3ccc(OC)cc3)nc2s1`, the AC50 is > 42 µM (inactive).

As to `CCCC1Cc2c(sc3ncnc(N)c23)CO1` (stereo not given), the AC50 is 9.15 µM.

For the molecule `CCCNC(=O)COC(=O)CCC(=O)c1cccs1`, the AC50 is > 42 µM (inactive).

Consider `O=C(Nc1ccc(Cl)cc1)N1CCC(c2nc(-c3ccc(F)cc3)no2)CC1`, for which the AC50 is > 42 µM (inactive).

For the molecule `CN(CC(=O)NCc1cccs1)S(=O)(=O)c1cccc2nsnc12`, the AC50 was > 42 µM (inactive).

For the molecule `CCOc1cc(C(N)=O)cc(Cl)c1OCc1ccccc1`, the AC50 was > 42 µM (inactive).

Consider `O=C(O)c1ccc(COc2c(F)c(F)cc(F)c2F)cc1`, for which the AC50 is > 42 µM (inactive).

In the case of `Cc1cc(C(F)F)n2ncc(C(=O)NCCc3ccc(Cl)cc3)c2n1`, the AC50 was > 42 µM (inactive).

For the molecule `COc1cc(C(=O)NCCC2=CCCCC2)ccc1OC1CCN(C(C)=O)CC1`, the AC50 was > 42 µM (inactive).

As to `CCOC(=O)N1CCN(S(=O)(=O)c2ccc(C)c(C)c2)CC1`, the AC50 was > 42 µM (inactive).

`CCOc1ccc(NS(=O)(=O)c2ccc(C(=O)NCc3cccnc3)cc2)cc1`: the AC50 was > 42 µM (inactive).

Regarding `Cc1nnc(N=c2ssnc2Cl)o1`, the AC50 is > 42 µM (inactive).

For `O=C1C2C(c3ccccc3)CC=CC2[C@H](c2ccc3ccccc3c2)N1Cc1ccccc1` (stereo not given in full), the AC50 was > 42 µM (inactive).

For `CC(N=C(NC#N)Nc1ccncc1)C(C)(C)C` (stereo not given), the AC50 is > 42 µM (inactive).

As to `O=C(NCCc1c[nH]c2ccccc12)c1cc(S(=O)(=O)N2CCCCC2)ccc1N1CCOCC1`, the AC50 was > 42 µM (inactive).

Turning to `C[N+](C)(C)CC(=O)Nc1ccc(Cl)cc1C(=O)c1ccccc1`, the AC50 was > 42 µM (inactive).

Take `COc1cc2cc(C)c3nnc(SCC(=O)Nc4cc(C)on4)n3c2cc1OC`: the AC50 is > 42 µM (inactive).

Regarding `O=C(/C=C/NNC(=O)c1ccc(Br)cc1)c1ccccc1`, the AC50 is > 42 µM (inactive).

Regarding `Cn1c(CN2CCOCC2)nnc1SCC(N)=O`, the AC50 is > 42 µM (inactive).

For `Cc1ccccc1-c1nnnn1C1CCS(=O)(=O)C1` (stereo not given), the AC50 was > 42 µM (inactive).
